# In US20250230193A1, “CYCLIC COMPOUND HAVING SELECTIVE KRAS INHIBITORY EFFECT ON HRAS AND NRAS” (CHUGAI SEIYAKU KABUSHIKI KAISHA, priority 2022, published 2025):
# *1 amine or outer side, *2 acyl side, *3 side chain or, on linkers, in order; H or OH if unused. Where a SMILES comes first, the peptide text is derived from it. Bridges are numbered along the chain shown (N, C = ends). [ ]: non-standard residue; d: D form. The star is where a group is joined. hPhe(3-Cl-4-CF3) = N[C@@H](CCc1ccc(C(F)(F)F)c(Cl)c1)C(=O)O; X42 = COCCCN([C@@H](Cc1ccc(C(F)(F)F)cc1)C(=O)[*:2])[*:1]; NPrPhe(4-CF3) = CCCN[C@@H](Cc1ccc(C(F)(F)F)cc1)C(=O)O; NMeGly(cPent) = CN[C@H](C(=O)O)C1CCCC1; NMeD = CN[C@@H](CC(=O)O)C(=O)O; NMeL = CN[C@@H](CC(C)C)C(=O)O; Morpholide = C1CN(*)CCO1; NMeA = CN[C@@H](C)C(=O)O; Ac5c = NC1(C(=O)O)CCCC1; Aze = O=C(O)[C@@H]1CCN1; Ac4c = NC1(C(=O)O)CCC1; Sar = CNCC(=O)O
# What was measured:
# [1] = target: GDP-bound NRAS wild-type protein (Homo sapiens, UniProt P01111); assay: Binding to NRAS by surface plasmon resonance (SPR), Single Cycle Kinetics; conditions: for NRAS/KRAS (ratio of KD value for NRAS to KD value for KRAS) / NRAS/KRAS (ratio of KD value with respect to NRAS to KD value with respect to KRAS): GDP-bound NRAS wild-type vs GDP-bound KRAS wild-type
# [2] = target: GDP-bound HRAS wild-type protein (Homo sapiens, UniProt P01112); assay: Binding to HRAS by surface plasmon resonance (SPR), Single Cycle Kinetics; conditions: for HRAS/KRAS (ratio of KD value for HRAS to KD value for KRAS) / HRAS/KRAS (ratio of KD value with respect to HRAS to KD value with respect to KRAS): GDP-bound HRAS wild-type vs GDP-bound KRAS wild-type
# [3] = SPR, GDP-bound wild-type proteins
# Sequence of GDP-bound NRAS wild-type protein (P01111 whole entry): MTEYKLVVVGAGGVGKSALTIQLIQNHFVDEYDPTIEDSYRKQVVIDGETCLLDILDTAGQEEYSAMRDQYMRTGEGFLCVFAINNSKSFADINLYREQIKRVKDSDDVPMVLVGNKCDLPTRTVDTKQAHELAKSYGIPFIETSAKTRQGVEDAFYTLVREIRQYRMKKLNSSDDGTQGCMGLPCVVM
# Sequence of GDP-bound HRAS wild-type protein (P01112 whole entry): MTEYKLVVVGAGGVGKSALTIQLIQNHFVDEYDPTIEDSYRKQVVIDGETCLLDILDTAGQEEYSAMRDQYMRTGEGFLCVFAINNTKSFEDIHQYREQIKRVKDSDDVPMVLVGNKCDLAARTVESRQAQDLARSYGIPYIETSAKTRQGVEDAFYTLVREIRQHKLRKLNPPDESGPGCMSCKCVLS
compound,measurement,setting,value
CC[C@H](C)[C@@H]1NC(=O)[C@H](CC(C)C)N(C)C(=O)C[C@@H](C(=O)N(C)C)N(C)C(=O)[C@H](C2CCCC2)N(C)C(=O)C2(CC(C)(C)C2)NC(=O)CN(C)C(=O)[C@H](CCc2cc(F)c(C(F)(F)F)c(F)c2)NC(=O)CN(C)C(=O)[C@H](Cc2ccc(C(F)(F)F)cc2)N2CC/C=C\C[C@@H](C2=O)N(C)C(=O)CN(C)C1=O [PP1776],NRAS/KRAS (ratio of KD value for NRAS to KD value for KRAS),"[1]; KD ratio, SPR",A (a compound having 10 or more and less than 20 is denoted as A)
same,HRAS/KRAS (ratio of KD value for HRAS to KD value for KRAS),"[2]; KD ratio, SPR",A (a compound having 10 or more and less than 20 is denoted as A)
CCO[C@@H]1C[C@H]2C(=O)NC3(CCC3)C(=O)N(C)[C@@H](C3CCCC3)C(=O)N(C)[C@H](C(=O)N(C)C)CC(=O)N(C)[C@@H](CC)C(=O)N[C@@H]([C@@H](C)CC)C(=O)N(C)CC(=O)N(C)[C@H]3C/C=C\CCN(C3=O)[C@@H](Cc3ccc(C(F)(F)F)cc3)C(=O)N(C)CC(=O)N[C@@H](CCc3cc(C)c(Cl)c(C)c3)C(=O)N2C1 [PP1821],NRAS/KRAS (ratio of KD value for NRAS to KD value for KRAS),"[1]; KD ratio, SPR",A (a compound having 10 or more and less than 20 is denoted as A)
same,HRAS/KRAS (ratio of KD value for HRAS to KD value for KRAS),"[2]; KD ratio, SPR",A (a compound having 10 or more and less than 20 is denoted as A)
CCCO[C@@H]1C[C@H]2C(=O)NC3(CCC3)C(=O)N(C)[C@@H](C3CCCC3)C(=O)N(C)[C@H](C(=O)N3CCOCC3)CC(=O)N(C)[C@@H](CC(C)C)C(=O)N[C@@H]([C@@H](C)CC)C(=O)N(C)CC(=O)N(C)[C@H]3CCCCCN(C3=O)[C@@H](Cc3ccc(C(F)(F)F)cc3)C(=O)N(C)CC(=O)N[C@@H](CCc3cc(F)c(C(F)(F)F)c(F)c3)C(=O)N2C1 [PP1161],NRAS/KRAS (ratio of KD value with respect to NRAS to KD value with respect to KRAS),"[1]; KD ratio, SPR",B (a compound having 3 or more and less than 10 is denoted as B)
same,HRAS/KRAS (ratio of KD value with respect to HRAS to KD value with respect to KRAS),"[2]; KD ratio, SPR",B (a compound having 3 or more and less than 10 is denoted as B)
CC[C@H](C)[C@@H]1NC(=O)[C@H](CC(C)C)N(C)C(=O)C[C@@H](C(=O)N2CCOCC2)N(C)C(=O)[C@H](C2CCCC2)N(C)C(=O)C2(CCCC2)NC(=O)[C@@H]2CCCN2C(=O)[C@H](CCc2ccc(C(F)(F)F)c(Cl)c2)NC(=O)CN(C)C(=O)[C@H](Cc2ccc(C(F)(F)F)cc2)N(CCCOC)C(=O)CN(C)C(=O)CN(C)C1=O [PP0133] ([NMeL]I[Sar][Sar][X42][Sar][hPhe(3-Cl-4-CF3)]P[Ac5c][NMeGly(cPent)][NMeD]-Morpholide; lactam N-11),NRAS/KRAS (ratio of KD for GDP-bound NRAS wild-type to KD for KRAS),[1]; SPR,B (a compound having 3 or more and less than 10 is denoted as B)
same,HRAS/KRAS (ratio of KD for GDP-bound HRAS wild-type to KD for KRAS),[2]; SPR,C (A compound having a KD ratio of 0.1 or more and less than 3 is denoted as C)
CCO[C@@H]1C[C@H]2C(=O)NC3(CCC3)C(=O)N(C)[C@@H](C3CCCC3)C(=O)N(C)[C@H](C(=O)N(C)C)CC(=O)N(C)[C@@H](CC(C)C)C(=O)N[C@@H]([C@@H](C)CC)C(=O)N(C)CC(=O)N(C)[C@H]3C/C=C\CCN(C3=O)[C@@H](Cc3ccc(C(F)(F)F)cc3)C(=O)N(C)CC(=O)N[C@@H](CCc3cc(F)c(C(F)(F)F)c(F)c3)C(=O)N2C1 [PP1107],NRAS/KRAS (ratio of KD value with respect to NRAS to KD value with respect to KRAS),"[1]; KD ratio, SPR",A (a compound having 10 or more and less than 20 is denoted as A)
same,HRAS/KRAS (ratio of KD value with respect to HRAS to KD value with respect to KRAS),"[2]; KD ratio, SPR",A (a compound having 10 or more and less than 20 is denoted as A)
CCC[C@H]1C(=O)N[C@@H]([C@@H](C)CC)C(=O)N(C)CC(=O)N(C)[C@H]2C/C=C\CCN(C2=O)[C@@H](Cc2ccc(C)cc2)C(=O)N(C)CC(=O)N[C@@H](CCc2ccc(CC)c(Cl)c2)C(=O)N2C[C@H](OCC)C[C@H]2C(=O)NC2(CC(C)(C)C2)C(=O)N(C)[C@@H](C2CCCC2)C(=O)N(C)[C@H](C(=O)N(C)C)CC(=O)N1C [PP2778],NRAS/KRAS (ratio of KD value with respect to GDP-bound NRAS wild-type protein to KD value with respect to KRAS),[1]; class symbols,A (a compound having 10 or more and less than 20 is denoted as A)
same,HRAS/KRAS (ratio of KD value with respect to GDP-bound HRAS wild-type protein to KD value with respect to KRAS),[2]; class symbols,A (a compound having 10 or more and less than 20 is denoted as A)
CC[C@H](C)[C@@H]1NC(=O)[C@H](CC)N(C)C(=O)C[C@@H](C(=O)N(C)C)N(CC)C(=O)[C@H](C2CCCC2)N(C)C(=O)C2(CCC2)NC(=O)[C@@H]2CCN2C(=O)[C@H](CCc2cc(F)c(C(F)(F)F)c(F)c2)NC(=O)CN(C)C(=O)[C@H](Cc2ccc(C(F)(F)F)cc2)N2CCCC[C@@H](C2=O)N(C)C(=O)CN(C)C1=O [PP0660],NRAS/KRAS (ratio of KD value with respect to GDP-bound NRAS wild-type protein to KD value with respect to KRAS),[1]; SPR,B (a compound having 3 or more and less than 10 is denoted as B)
same,HRAS/KRAS (ratio of KD value with respect to GDP-bound HRAS wild-type protein to KD value with respect to KRAS),[2]; SPR,B (a compound having 3 or more and less than 10 is denoted as B)
CCCN1C(=O)[C@@H]2CCN2C(=O)[C@H](C)N(C)C(=O)[C@H]([C@@H](C)CC)NC(=O)[C@H](CC(C)C)N(C)C(=O)C[C@@H](C(=O)N2CCOCC2)NC(=O)[C@H](C2CCCC2)N(C)C(=O)C2(CCC2)NC(=O)[C@@H]2CCCN2C(=O)[C@H](CCc2ccc(C(F)(F)F)c(Cl)c2)NC(=O)CN(C)C(=O)[C@@H]1Cc1ccc(C(F)(F)F)cc1 [PP0344] ([NMeL]I[NMeA][Aze][NPrPhe(4-CF3)][Sar][hPhe(3-Cl-4-CF3)]P[Ac4c][NMeGly(cPent)]D-Morpholide; lactam N-11),NRAS/KRAS (ratio of KD for GDP-bound NRAS wild-type to KD for KRAS),[1]; SPR,C (A compound having a KD ratio of 0.1 or more and less than 3 is denoted as C)
same,HRAS/KRAS (ratio of KD for GDP-bound HRAS wild-type to KD for KRAS),[2]; SPR,B (a compound having 3 or more and less than 10 is denoted as B)
CCO[C@@H]1C[C@H]2C(=O)NC3(CC(C)(C)C3)C(=O)N(C)[C@@H](C(CC)CC)C(=O)N(C)[C@H](C(=O)N(C)C)CC(=O)N(C)[C@@H](CC3CCC3)C(=O)N[C@@H]([C@@H](C)CC)C(=O)N(C)CC(=O)N(C)[C@H]3C/C=C\CCN(C3=O)[C@@H](Cc3ccc(C(F)(F)F)cc3)C(=O)N(C)CC(=O)N[C@@H](CCc3ccc(Cl)c(Cl)c3)C(=O)N2C1 [PP2180],NRAS/KRAS (ratio of KD value with respect to NRAS to KD value with respect to KRAS),[1]; SPR,AA (a compound having 20 or more is denoted as AA)
same,HRAS/KRAS (ratio of KD value with respect to HRAS to KD value with respect to KRAS),[2]; SPR,A (a compound having 10 or more and less than 20 is denoted as A)
CC[C@H](C)[C@@H]1NC(=O)[C@H](CC(F)(F)F)N(C)C(=O)C[C@@H](C(=O)N2CCOCC2)N(C)C(=O)[C@H](C2CCCC2)N(C)C(=O)C2(CCCC2)NC(=O)[C@@H]2CCCN2C(=O)[C@H](CCc2cc(F)c(C(F)(F)F)c(F)c2)NC(=O)CN(C)C(=O)[C@H](Cc2ccc(C(F)(F)F)cc2)N2CCCCC[C@@H](C2=O)N(C)C(=O)CN(C)C1=O [PP0520],NRAS/KRAS (ratio of KD value with respect to GDP-bound NRAS wild-type protein to KD value with respect to KRAS),[1]; SPR,B (a compound having 3 or more and less than 10 is denoted as B)
same,HRAS/KRAS (ratio of KD value with respect to GDP-bound HRAS wild-type protein to KD value with respect to KRAS),[2]; SPR,B (a compound having 3 or more and less than 10 is denoted as B)
CCCOC[C@H]1C(=O)N[C@@H]([C@@H](C)CC)C(=O)N(C)CC(=O)N(C)[C@H]2C/C=C\CCN(C2=O)[C@@H](Cc2ccc(C(F)(F)F)cc2)C(=O)N(C)CC(=O)N[C@@H](CCc2cc(F)c(C(F)(F)F)c(F)c2)C(=O)N2C[C@H](F)C[C@H]2C(=O)NC2(CC(C)(C)C2)C(=O)N(C)[C@@H](C2CCCC2)C(=O)N(C)[C@H](C(=O)N(C)CC)CC(=O)N1C [PP1697],NRAS/KRAS (ratio of KD value for NRAS to KD value for KRAS),"[1]; KD ratio, SPR",A (a compound having 10 or more and less than 20 is denoted as A)
same,HRAS/KRAS (ratio of KD value for HRAS to KD value for KRAS),"[2]; KD ratio, SPR",A (a compound having 10 or more and less than 20 is denoted as A)
CC[C@H](C)[C@@H]1NC(=O)[C@@H]2CCCCc3ccc(cc3)C[C@@H](C(=O)N(C)CC(=O)N[C@@H](CCc3ccc(C(F)(F)F)c(OC)c3)C(=O)N3C[C@H](OC4CCCC4)C[C@H]3C(=O)NC3(CC(C)(C)C3)C(=O)N(C)[C@@H](C3CCCC3)C(=O)N(C)[C@H](C(=O)N(C)C)CC(=O)N2C)N2CC/C=C\C[C@@H](C2=O)N(C)C(=O)CN(C)C1=O [PP3080],NRAS/KRAS (ratio of KD value with respect to GDP-bound NRAS wild-type protein to KD value with respect to KRAS),[1]; [3],A (a compound having 10 or more and less than 20 is denoted as A)
same,HRAS/KRAS (ratio of KD value with respect to GDP-bound HRAS wild-type protein to KD value with respect to KRAS),[2]; [3],B (a compound having 3 or more and less than 10 is denoted as B)
CCO[C@@H]1C[C@H]2C(=O)N(C)C3(CCCC3)C(=O)N(C)[C@@H](C3CCCC3)C(=O)N(C)[C@H](C(=O)N(C)C)CC(=O)N(C)[C@@H](C3CC3)C(=O)N[C@@H]([C@@H](C)CC)C(=O)N(C)CC(=O)N(C)[C@H]3C/C=C\CCN(C3=O)[C@@H](Cc3ccc(C)cc3)C(=O)N(C)CC(=O)N[C@@H](CCc3cc(F)c(C(F)(F)F)c(F)c3)C(=O)N2C1 [PP1808],NRAS/KRAS (ratio of KD value for NRAS to KD value for KRAS),"[1]; KD ratio, SPR",A (a compound having 10 or more and less than 20 is denoted as A)
same,HRAS/KRAS (ratio of KD value for HRAS to KD value for KRAS),"[2]; KD ratio, SPR",B (a compound having 3 or more and less than 10 is denoted as B)
CCO[C@@H]1C[C@H]2C(=O)NC3(CC(C)(C)C3)C(=O)N(C)[C@@H](C(CC)CC)C(=O)N(C)[C@H](C(=O)N(C)C)CC(=O)N(C)[C@@H](CC3CCC3)C(=O)N[C@@H]([C@@H](C)CC)C(=O)N(C)CC(=O)N(C)[C@H]3C/C=C\CCN(C3=O)[C@@H](Cc3ccc(C(F)(F)F)cc3)C(=O)N(C)CC(=O)N[C@@H](CCc3cc(F)c(C(F)(F)F)c(F)c3)C(=O)N2C1 [PP2133],NRAS/KRAS (ratio of KD value with respect to NRAS to KD value with respect to KRAS),[1]; SPR,AA (a compound having 20 or more is denoted as AA)
same,HRAS/KRAS (ratio of KD value with respect to HRAS to KD value with respect to KRAS),[2]; SPR,A (a compound having 10 or more and less than 20 is denoted as A)
